Test results taken from patent US20210085676A1, “TREATMENT FOR AGE- AND OXIDATIVE STRESS-ASSOCIATED MUSCLE ATROPHY AND WEAKNESS” (Oklahoma Medical Research Foundation, priority 2018, published 2021).
“Also recorded” adds a separate entry of the source.

Experiments:
Sod1−/− mice = assay: Body mass and gastrocnemius muscle mass in Sod1−/− mouse model of accelerated sarcopenia; assay type: in vivo; details: 50 mg/kg i.p. 3 times per week, 7 weeks
Experimental: Animals. The generation and characterization of the Sod1^−/− mice is described in detail elsewhere (3, 24). Female ≈2 months old C57BL/6J wild-type (WT; n=12-18) and Sod1^−/− mice (n=12-18) were divided into four groups and treated with either vehicle (10% DMSO, 10% Tween-80 in PBS) or CDN1163 (50 mg/kg) by intraperitoneal injection three times per week for 7 weeks. Care and management of the mice was executed according to The Guide for the Care and Use of Laboratory Animals and approved by the institutional Animal Care and Use Committee at the Oklahoma Medical Research Foundation (OKC, Okla., USA). CDN1163 prevents gastrocnemius muscle atrophy in the Sod1^−/− mice. […] At 2 months of age, neither absolute (FIG. 2B) nor normalized (FIG. 2C) gastrocnemius muscle mass is statistically lower in Sod1^−/− versus WT female mice. However, at the end of the 7 week period (˜4 months of age) there is a significant decrease in both absolute and normalized gastrocnemius muscle mass in the untreated Sod1^−/− mice compared to untreated WT mice (FIGS. 2B, 2C) consistent with the inventor's previous reports(3).

old wildtype mice = assay: Aging study in old wildtype mice (24-26 months), 8-10 months treatment; assay type: in vivo, mouse
From the text: The present inventors studied a group of old wildtype mice (24-26 months) with and without 8-10 months treatment with CDN1163. […] Further, the old mice show significant atrophy of the gastrocnemius muscles when compared to baseline group (≈10%, p<0.05). […] The inventors also measured the muscle force generating capacity in the mouse EDL muscles because of large body of literature showing reduced strength of extensor digitorum longus (EDL) muscle with aging. EDL muscle weakness in the old wild-type mice (≈11%, p<0.05) was consistent with previous studies, when compared to the baseline group. […] This effect was consistent at stimulation frequencies for maximal and sub-maximal (≈50% of maximal force) tetanic forces normalized for muscle mass. […] As such, CDN1163 was able to reduce muscle weakness, while not having side-effects related to muscle half relaxation time and time to maximal twitch force.

SERCA = SERCA Ca2+-dependent ATPase activity in gastrocnemius muscle homogenates of treated mice; assay type: in vivo, mouse; details: Sod1−/− mice, 50 mg/kg i.p. 3 times per week, 7 weeks
Experimental: Animals. The generation and characterization of the Sod1^−/− mice is described in detail elsewhere (3, 24). Female ≈2 months old C57BL/6J wild-type (WT; n=12-18) and Sod1^−/− mice (n=12-18) were divided into four groups and treated with either vehicle (10% DMSO, 10% Tween-80 in PBS) or CDN1163 (50 mg/kg) by intraperitoneal injection three times per week for 7 weeks. Care and management of the mice was executed according to The Guide for the Care and Use of Laboratory Animals and approved by the institutional Animal Care and Use Committee at the Oklahoma Medical Research Foundation (OKC, Okla., USA). SERCA activity. The measurement of SERCA activity was performed in the muscle homogenates at 37° C. using a spectrophotometric assay as previously described (26). CDN1163 rescues the SERCA activity in the Sod1^−/− mice. Ca^2+-dependent Ca^2+-ATPase activity was measured in gastrocnemius muscle homogenates to determine the effects of CDN1163 on SERCA function. […] Levels of SERCA1 and SERCA2 mRNA and protein were not changed in Sod1^−/− mice and were not altered by CDN1163 treatment (FIGS. 1C, 1D).

[1] = test system: isolated mitochondria from the gastrocnemius muscle; assay: Mitochondrial H2O2 production (Amplex red-HRP) in isolated mitochondria from gastrocnemius muscle of treated mice; assay type: in vivo, mouse; details: Sod1−/− mice
Experimental: (§1) Animals. The generation and characterization of the Sod1^−/− mice is described in detail elsewhere (3, 24). Female ≈2 months old C57BL/6J wild-type (WT; n=12-18) and Sod1^−/− mice (n=12-18) were divided into four groups and treated with either vehicle (10% DMSO, 10% Tween-80 in PBS) or CDN1163 (50 mg/kg) by intraperitoneal injection three times per week for 7 weeks. Care and management of the mice was executed according to The Guide for the Care and Use of Laboratory Animals and approved by the institutional Animal Care and Use Committee at the Oklahoma Medical Research Foundation (OKC, Okla., USA).
Mitochondrial function. Mitochondrial isolation and assays for H2O2 generation were performed in gastrocnemius muscle as described previously by the inventor's laboratory (27). Freshly isolated mitochondria were used for H2O2 release assay using the Amplex red-HRP method. Isolated mitochondrial are exposed to respiratory substrates and HRP (1 U Ml-1) in the assay buffer catalyzes the H2O2-dependent oxidation of non-fluorescent Amplex Red (80 μM) (Molecular Probes, Eugene, Oreg., USA) to fluorescent resofurin red (excitation λ=544 nm, emission λ=590 nm at 37° C.). The slope of the increase in fluorescence was converted to the rate of H2O2 production with standard curve.
CDN1163 attenuates mitochondrial dysfunction in the Sod1^−/− mice. It is well documented that elevated levels of cytosolic Ca^2+ lead to increased mitochondrial ROS production (16). The inventors have previously shown that the mitochondria from the Sod1^−/− mice show structural and functional defects (4, 5). To test whether the activation of SERCA pump function improves mitochondrial function, the inventors measured mitochondrial ROS production as H2O2 emission using isolated mitochondria from the gastrocnemius muscle. […] CDN1163 treatment in the Sod1^−/− mice returns glutamate/malate stimulated H2O2 generation to WT levels (FIG. 4A).

[2] = test system: EDL muscle of Sod1−/− mice; assay: Contractile measurements in isolated EDL muscle of treated Sod1−/− mice; assay type: in vivo, mouse
Experimental: Animals. The generation and characterization of the Sod1^−/− mice is described in detail elsewhere (3, 24). Female ≈2 months old C57BL/6J wild-type (WT; n=12-18) and Sod1^−/− mice (n=12-18) were divided into four groups and treated with either vehicle (10% DMSO, 10% Tween-80 in PBS) or CDN1163 (50 mg/kg) by intraperitoneal injection three times per week for 7 weeks. Care and management of the mice was executed according to The Guide for the Care and Use of Laboratory Animals and approved by the institutional Animal Care and Use Committee at the Oklahoma Medical Research Foundation (OKC, Okla., USA). Contractile Measurements. Contractile force generation was measured in isolated extensor digitorum longus (EDL) muscle using a 1200A in vitro test system (Aurora Scientific Inc.) as described elsewhere (7). Briefly, muscles were individually tied to a model 300C servomotor (Aurora Scientific Inc.) and fixed within a water bath containing an oxygenated (95% O2, 5% CO2) Krebs-Ringer solution (in mM: 137 NaCl, 5 KCl, 1 MgSO4, 1 NaH2PO4, 24 NaHCO3, 2 CaCl2) maintained at 32 C. Computer controlled stimulation was applied through a model 701C stimulator (Aurora Scientific Inc.). Force frequency curves were generated with stimulation frequencies between 1 and 300 Hz, while the fatigue protocol consisted of repeated 150 Hz stimuli, every 5 s for 400 s. All data were recorded and analyzed using commercial software (DMC and DMA, Aurora Scientific). Specific force (N/cm^2) was measured using muscle length and mass. Example 3. CDN1163 prevents contractile dysfunction in the Sod1^−/− mice. In agreement with the inventor's previous findings, the inventors measured a significant decline in the in-vitro specific force measured in EDL muscle of Sod1^−/− mice (˜19%, p<0.05) when compared to WT mice (FIG. 3A). […] On the other hand, CDN1163 has no effect on the time to peak contraction (TTP) and half relaxation time (RT1/2) in the EDL muscle during twitch contractions (FIGS. 3B, 3C).

ob/ob mouse model = details: reference 17; cited from earlier work
[3] = test system: F2-isoprostanes in quadriceps muscle; assay: Oxidative damage by F2-isoprostane level in quadriceps muscle of treated mice; assay type: in vivo, mouse; details: Sod1−/− mice
Experimental: as §1, with “USA). Analysis of oxidative damage by F2-isoprostane level. The levels of F2-isoprostanes in quadriceps muscle were measured using thin layer chromatography and GC-mass spectrometry as described previously (25). CDN1163 reduces the oxidative damage in the Sod1^−/− mice. The inventors have previously reported increased oxidative damage in the skeletal muscles of Sod1^−/− mice (6) that might be contributing to muscle atrophy and weakness. […] Therefore the inventors investigated whether CDN1163 can prevent oxidative stress-induced damage by measuring the levels of F2-isoprostanes, an indicator of lipid peroxidation, in the quadriceps muscles.” for “USA).”

[4] = old wildtype mice 24-26 months, versus 16 month old baseline
[5] = 50 mg/kg i.p. 3 times per week, 7 weeks
[6] = EDL muscle, twitch contractions, 7 weeks treatment

## Cc1ccc2cccc(NC(=O)c3ccc(OC(C)C)cc3)c2n1 [CDN1163, 4-(1-Methylethoxy)-N-(2-methyl-8-quinolinyl)-benzamide]
Sod1−/− mice; Sod1−/− mice
  Increase in (normalized) gastrocnemius muscle mass versus untreated Sod1−/− mice: 23%
Sod1−/− mice; Sod1−/− mice, 50 mg/kg
  Gastrocnemius muscle mass / atrophy: restores; also recorded: completely prevented this atrophy
Sod1−/− mice; WT or Sod1−/− mice, 50 mg/kg
  Body weight (body mass): did not alter
Old wildtype mice; old wildtype mice
  Muscle half relaxation time: no significant effects
  Time to maximal twitch force: no significant effects
Old wildtype mice; [4]
  Age-related atrophy of the gastrocnemius muscles: completely prevented
  Age-related reduction in body weight: did not prevent
Old wildtype mice; old wildtype mice, maximal and sub-maximal tetanic forces normalized for muscle mass
  Age-related decline in EDL muscle force: prevented this decline in force
SERCA
  Maximum Ca2+ dependent SERCA (SR Ca2+-ATPase) activity: completely restored
[1]; [5]
  Mitochondrial ROS generation: reversed
[1]; 7 weeks treatment
  Mitochondrial H2O2 production, glutamate/malate stimulated (state-2, complex 1-linked): reduces; also recorded: to WT levels
[1]; without external substrate, 7 weeks treatment
  Mitochondrial H2O2 production, State-1 respiration: reduces; also recorded: do not show elevated levels
[2]; [6]
  Half relaxation time (RT1/2): without affecting; also recorded: no effect
  Time to twitch peak tension / time to peak contraction (TTP): without affecting; also recorded: no effect
[2]; Sod1−/− mice, 50 mg/kg i.p. 3 times per week, 7 weeks, measured in vitro, 50 mg/kg
  Specific force of EDL muscle: completely restored
ob/ob mouse model
  Plasma levels of malondialdehyde (marker of oxidative stress): reduce
[3]; [5]
  Reduction of oxidative damage in muscle tissue measured as F2-isoprostanes: 50%
[3]; quadriceps muscle, 7 weeks treatment
  F2-isoprostanes levels (lipid peroxidation): reduces; also recorded: prevented this increase
